# Assay results taken from patent publication US20260001914A1, “MACROCYCLIC PEPTIDES TARGETING KRAS” (Merck Sharp & Dohme LLC, priority 2022, published 2026).
# *1 amine or outer side, *2 acyl side, *3 side chain or, on linkers, in order; H or OH if unused. Where a SMILES comes first, the peptide text is derived from it. Bridges are numbered along the chain shown (N, C = ends). [ ]: non-standard residue; d: D form. NMeNva(5-imidazol-1-yl) = CN[C@@H](CCCn1ccnc1)C(=O)O; Phe(4-guanidino) = N=C(N)Nc1ccc(C[C@H](N)C(=O)O)cc1; X22 = CNC(=N)N(C)CCC[C@@H](C(=O)[*:2])N(C)[*:1]; Ala(pyrimidin-5-yl) = N[C@@H](Cc1cncnc1)C(=O)O; NMePhe(3-Me) = CN[C@@H](Cc1cccc(C)c1)C(=O)O; X11 = CC(C)(F)CC[C@H](N[*:1])C(=O)[*:2]; X13 = O=C([C@H](Cc1ccncc1F)N[*:1])[*:2]; NMeAha = CN[C@@H](CCN=[N+]=[N-])C(=O)O; Phe(4-F) = N[C@@H](Cc1ccc(F)cc1)C(=O)O; 1Nal = N[C@@H](Cc1cccc2ccccc12)C(=O)O; X21 = O=C([C@@H]1C[C@H]1CN[*:1])[*:2]; Phe(2-F) = N[C@@H](Cc1ccccc1F)C(=O)O; X31 = O=C([C@H](CCC1CC1)N[*:1])[*:2]; Abu(4,4-F2) = N[C@@H](CC(F)F)C(=O)O; NMe3Pal = CN[C@@H](Cc1cccnc1)C(=O)O; NMeY = CN[C@@H](Cc1ccc(O)cc1)C(=O)O; X1 = O=C(C12CC(CN[*:1])(C1)C2)[*:2]; X17 = O=C([C@H](CCCCF)N[*:1])[*:2]; NMeR = CN[C@@H](CCCNC(=N)N)C(=O)O; Ala(cPr) = N[C@@H](CC1CC1)C(=O)O; NMeF = CN[C@@H](Cc1ccccc1)C(=O)O; PhLac = O=C(O)[C@@H](O)Cc1ccccc1; 3Pal = N[C@@H](Cc1cccnc1)C(=O)O; d3Pal = N[C@H](Cc1cccnc1)C(=O)O; Ahp(2) = CCCCC[C@H](N)C(=O)O; Cba = N[C@@H](CC1CCC1)C(=O)O; NMeNle = CCCC[C@H](NC)C(=O)O; hLeu = CC(C)CC[C@H](N)C(=O)O; hLys = NCCCCC[C@H](N)C(=O)O; X64 = O=C(C#CCN[*:1])[*:2]; αMeC = C[C@](N)(CS)C(=O)O; NMeA = CN[C@@H](C)C(=O)O; Nle = CCCC[C@H](N)C(=O)O
# Target: KRAS-G12D protein (Homo sapiens, UniProt P01116, G12D)
# Assay: SOS-mediated nucleotide exchange assay (BODIPY-GDP / Tb-streptavidin TR-FRET)
# Assay type: biochemical
# Sequence of KRAS-G12D protein (P01116 1-188 isoform P01116-2 G12D): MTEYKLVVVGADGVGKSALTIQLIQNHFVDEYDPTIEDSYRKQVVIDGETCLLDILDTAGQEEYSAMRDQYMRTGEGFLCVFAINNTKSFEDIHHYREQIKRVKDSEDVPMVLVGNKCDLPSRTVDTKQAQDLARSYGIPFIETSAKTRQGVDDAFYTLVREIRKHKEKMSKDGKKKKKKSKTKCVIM
row,SMILES,EC50 [nM]
1,"C[C@H]1C(=O)N[C@@H](Cc2cncnc2)C(=O)N[C@@H](CC2CC2)C(=O)N[C@@H](Cc2ccccc2F)C(=O)N[C@@H](CC(F)F)C(=O)N(C)[C@@H](Cc2ccccc2)C(=O)NCC23CC(C2)(C3)C(=O)O[C@@H](Cc2ccccc2)C(=O)N1C [compound 271, cyclo(FLac-NMeA-PyrimAla-cPrA-Phe2F-AbuF2-NMeF-amBCP)] (cyclo([Ala(cPr)][Phe(2-F)][Abu(4,4-F2)][NMeF][X1][PhLac][NMeA][Ala(pyrimidin-5-yl)]))",730
2,"CCCC[C@@H]1NC(=O)[C@H](Cc2cccnc2)NC(=O)[C@H](CCCn2ccnc2)N(C)C(=O)[C@H](Cc2ccccc2)N(C)C(=O)[C@@H]2C[C@H]2CNC(=O)[C@H](Cc2cccnc2)N(C)C(=O)[C@H](CCCC)NC(=O)[C@H](Cc2ccccc2F)NC1=O [compound 256, cyclo(NMeF-NMeNvaImid-3Pal-Nle-Phe2F-Nle-NMe3Pal-tamcPr)] (cyclo([3Pal][Nle][Phe(2-F)][Nle][NMe3Pal][X21][NMeF][NMeNva(5-imidazol-1-yl)]))",7650
3,"CCCC[C@@H]1NC(=O)[C@H](Cc2cccnc2)NC(=O)[C@H](C)N(C)C(=O)[C@H](Cc2ccc(F)cc2)NC(=O)C23CC(CNC(=O)[C@H](Cc4cccnc4)N(C)C(=O)[C@H](CCCC)NC(=O)[C@H](Cc4ccccc4F)NC1=O)(C2)C3 [compound 167, cyclo(Phe4F-NMeA-3Pal-Nle-Phe2F-Nle-NMe3Pal-amBCP)] (cyclo([3Pal][Nle][Phe(2-F)][Nle][NMe3Pal][X1][Phe(4-F)][NMeA]))",99.9
4,"CCCCC[C@@H]1NC(=O)[C@H](Cc2ccc(OC)cc2)NC(=O)[C@H](CC2CCC2)NC(=O)[C@H](Cc2ccc(N(C)C(=N)NC)cc2)NC(=O)[C@H](CCCNC(=N)N)NC(=O)[C@H](Cc2ccccc2)NC(=O)CSC[C@@](C)(C(N)=O)NC(=O)[C@H](Cc2ccccc2)N(C)C1=O [compound 382, cyclo(F-R-Phe4GnMeMe-cBuA-TyrOMe-Ahp-NMeF-aMeCl-ClAc)]",1.6
5,"CCCC[C@@H]1NC(=O)[C@H](Cc2ccccc2F)NC(=O)[C@H](CC2CCC2)NC(=O)[C@@H](Cc2cccnc2)NC(=O)[C@H](CCCNC(=N)N)NC(=O)[C@H](Cc2ccccc2)NC(=O)C#CCNC(=O)[C@H](Cc2cccnc2)N(C)C1=O [compound 104, cyclo(F-R-d3Pal-cBuA-Phe2F-Nle-NMe3Pal-amBYA)] (cyclo(FR[d3Pal][Cba][Phe(2-F)][Nle][NMe3Pal][X64]))",387
6,"CCCC[C@@H]1NC(=O)[C@H](Cc2ccccc2F)NC(=O)[C@H](CCCC)N(C)C(=O)[C@@H](Cc2cccnc2)NC(=O)[C@H](CCCNC(=N)N)N(C)C(=O)[C@H](Cc2ccccc2)NC(=O)C23CC(CNC(=O)[C@H](Cc4cccnc4)N(C)C1=O)(C2)C3 [compound 109, cyclo(F-NMeR-d3Pal-NMeNle-Phe2F-Nle-NMe3Pal-amBCP)] (cyclo(F[NMeR][d3Pal][NMeNle][Phe(2-F)][Nle][NMe3Pal][X1]))",1200
7,"C[C@H]1C(=O)N[C@@H](Cc2cncnc2)C(=O)N[C@@H](CC2CCC2)C(=O)N[C@@H](Cc2ccccc2F)C(=O)N[C@@H](CCC(C)(C)F)C(=O)N(C)[C@@H](Cc2ccccc2)C(=O)NCC23CC(C2)(C3)C(=O)O[C@@H](Cc2ccccc2)C(=O)N1C [compound 225, cyclo(FLac-NMeA-PyrimAla-cBuA-Phe2F-hL3F-NMeF-amBCP)] (cyclo([Cba][Phe(2-F)][X11][NMeF][X1][PhLac][NMeA][Ala(pyrimidin-5-yl)]))",1.87
8,"CCCC[C@@H]1NC(=O)[C@H](Cc2cncnc2)NC(=O)[C@H](C)N(C)C(=O)[C@H](Cc2ccccc2)OC(=O)C23CC(CNC(=O)[C@H](Cc4ccc(OC)cc4)N(C)C(=O)[C@H](CCCC)NC(=O)[C@H](Cc4ccccc4F)NC1=O)(C2)C3 [compound 175, cyclo(FLac-NMeA-PyrimAla-Nle-Phe2F-Nle-NMeYOMe-amBCP)] (cyclo([NMeA][Ala(pyrimidin-5-yl)][Nle][Phe(2-F)][Nle][NMeY](Me)[X1][PhLac]))",11
9,"CCCC[C@@H]1NC(=O)[C@H](Cc2ccccc2F)NC(=O)[C@H](CCCCF)NC(=O)[C@H](Cc2cncnc2)NC(=O)[C@H](C)N(C)C(=O)[C@H](Cc2ccccc2)OC(=O)C23CC(CNC(=O)[C@H](Cc4ccccc4)N(C)C1=O)(C2)C3 [compound 130, cyclo(FLac-NMeA-PyrimAla-NleF-Phe2F-Nle-NMeF-amBCP)] (cyclo([NMeA][Ala(pyrimidin-5-yl)][X17][Phe(2-F)][Nle][NMeF][X1][PhLac]))",2.43
10,"CCCC[C@@H]1NC(=O)[C@H](Cc2cccnc2)NC(=O)[C@H](CCCN(C)C(=N)NC)N(C)C(=O)[C@H](Cc2ccccc2)OC(=O)CSC[C@@](C)(C(N)=O)NC(=O)[C@H](Cc2cccnc2)N(C)C(=O)[C@H](CCCC)NC(=O)[C@H](Cc2ccccc2F)NC1=O [compound 396, cyclo(FLac-NMeArg1MeMe-3Pal-Nle-Phe2F-Nle-NMe3Pal-aMeCl-ClAc)] ({CH2CO}-[PhLac][X22][3Pal][Nle][Phe(2-F)][Nle][NMe3Pal][αMeC]-NH2; thioether N-8)",1.8
11,"CCCC[C@@H]1NC(=O)[C@H](Cc2cccnc2)NC(=O)[C@H](CCN=[N+]=[N-])N(C)C(=O)[C@H](Cc2ccccc2)OC(=O)C23CC(CNC(=O)[C@H](Cc4cccnc4)N(C)C(=O)[C@H](CCCC)NC(=O)[C@H](Cc4ccccc4F)NC1=O)(C2)C3 [compound 249, cyclo(FLac-NMeDabN3-3Pal-Nle-Phe2F-Nle-NMe3Pal-amBCP)] (cyclo([3Pal][Nle][Phe(2-F)][Nle][NMe3Pal][X1][PhLac][NMeAha]))",87.6
12,"CCCC[C@@H]1NC(=O)[C@H](Cc2cccnc2)NC(=O)[C@H](C)N(C)C(=O)[C@H](Cc2ccccc2)OC(=O)C23CC(CNC(=O)[C@H](Cc4ccccc4)N(C)C(=O)[C@H](CCCC)NC(=O)[C@H](Cc4ccccc4F)NC1=O)(C2)C3 [compound 236, cyclo(FLac-NMeA-3Pal-Nle-Phe2F-Nle-NMeF-amBCP)] (cyclo([3Pal][Nle][Phe(2-F)][Nle][NMeF][X1][PhLac][NMeA]))",50.3
13,"Cc1cccc(C[C@H]2C(=O)NCC34CC(C3)(C4)C(=O)O[C@@H](Cc3ccccc3)C(=O)N(C)[C@@H](C)C(=O)N[C@@H](Cc3cncnc3)C(=O)N[C@@H](CC3CC3)C(=O)N[C@@H](Cc3ccncc3F)C(=O)N[C@@H](CCC(C)C)C(=O)N2C)c1 [compound 279, cyclo(FLac-NMeA-PyrimAla-cPrA-4Pal2F-hL-NMePhe3Me-amBCP)] (cyclo([Ala(cPr)][X13][hLeu][NMePhe(3-Me)][X1][PhLac][NMeA][Ala(pyrimidin-5-yl)]))",3
14,"CCCC[C@@H]1NC(=O)[C@H](Cc2cccnc2)NC(=O)[C@H](CCCNC(=N)N)NC(=O)[C@H](Cc2ccccc2)NC(=O)CSC[C@@](C)(C(=O)O)NC(=O)[C@H](Cc2cccnc2)N(C)C(=O)[C@H](CCCC)NC(=O)[C@H](Cc2ccccc2F)NC1=O [compound 148, cyclo(F-R-3Pal-Nle-Phe2F-Nle-NMe3Pal-aMeC-ClAc)] ({CH2CO}-FR[3Pal][Nle][Phe(2-F)][Nle][NMe3Pal][αMeC]-OH; thioether N-8)",370
15,"CCCCC[C@@H]1NC(=O)[C@H](Cc2ccc(O)cc2)NC(=O)[C@H](CC(C)C)NC(=O)[C@H](Cc2ccc(O)cc2)NC(=O)[C@H](CCCNC(=N)N)NC(=O)[C@H](Cc2ccccc2)NC(=O)CSC[C@@H](C(=O)NCC(=O)N[C@@H](CCCCN)C(=O)N[C@@H](CCCCN)C(N)=O)NC(=O)[C@H](Cc2ccccc2)N(C)C1=O [compound 56, cyclo(F-R-Y-L-Y-Ahp-NMeF-C2-ClAc)] ({CH2CO}-FRYLY[Ahp(2)][NMeF]CGKK-NH2; thioether N-8)",534
16,"CCCC[C@@H]1NC(=O)[C@H](Cc2cccnc2)NC(=O)[C@H](C)N(C)C(=O)[C@H](Cc2ccccc2)NC(=O)CSC[C@@](C)(C(N)=O)NC(=O)[C@H](Cc2ccccc2)N(C)C(=O)[C@H](CCCC)NC(=O)[C@H](Cc2ccccc2F)NC1=O [compound 159, cyclo(F-NMeA-3Pal-Nle-Phe2F-Nle-NMeF-aMeCl-ClAc)] ({CH2CO}-F[NMeA][3Pal][Nle][Phe(2-F)][Nle][NMeF][αMeC]-NH2; thioether N-8)",110
17,"CCCC[C@@H]1NC(=O)[C@H](Cc2ccc(NC(=N)N)cc2)NC(=O)[C@H](CCCNC(=N)N)NC(=O)[C@H](Cc2cccc3ccccc23)NC(=O)CNC(=O)[C@H](C)NC(=O)[C@H](Cc2ccccc2)N(C)C(=O)[C@H](CCCC)NC(=O)[C@H](Cc2ccc(O)cc2)NC1=O [compound 199, cyclo(INal-R-Phe4Gn-Nle-Y-Nle-NMeF-A-G)] (cyclo([1Nal]R[Phe(4-guanidino)][Nle]Y[Nle][NMeF]AG))",346
18,"CCCC[C@@H]1NC(=O)[C@H](Cc2ccc(O)cc2)NC(=O)[C@H](CC(C)C)NC(=O)[C@H](Cc2ccc(O)cc2)NC(=O)[C@H](CCCNC(=N)N)NC(=O)[C@H](Cc2ccccc2)NC(=O)CSC[C@H](C(N)=O)NC(=O)[C@H](Cc2ccccc2)N(C)C1=O [compound 18, cyclo(F-R-Y-L-Y-Nle-NMeF-dCl-ClAc)]",825
19,"CCCCC[C@@H]1NC(=O)[C@H](Cc2ccc(OC)cc2)NC(=O)[C@H](CC2CCC2)NC(=O)[C@H](Cc2cccnc2)NC(=O)[C@H](C)N(C)C(=O)[C@H](Cc2ccccc2)NC(=O)CSC[C@@](C)(C(N)=O)NC(=O)[C@H](Cc2ccccc2)N(C)C1=O [compound 158, cyclo(F-NMeA-3Pal-cBuA-TyrOMe-Ahp-NMeF-aMeCl-ClAc)] ({CH2CO}-F[NMeA][3Pal][Cba]Y(Me)[Ahp(2)][NMeF][αMeC]-NH2; thioether N-8)",146
20,"C[C@H]1C(=O)N[C@@H](Cc2cncnc2)C(=O)N[C@@H](CC2CCC2)C(=O)N[C@@H](Cc2ccccc2F)C(=O)N[C@@H](CCC2CC2)C(=O)N(C)[C@@H](Cc2ccccc2)C(=O)NCC23CC(C2)(C3)C(=O)O[C@@H](Cc2ccccc2)C(=O)N1C [compound 115, cyclo(FLac-NMeA-PyrimAla-cBuA-Phe2F-hcPrA-NMeF-amBCP)] (cyclo([Cba][Phe(2-F)][X31][NMeF][X1][PhLac][NMeA][Ala(pyrimidin-5-yl)]))",4
21,"CCCCC[C@@H]1NC(=O)[C@H](Cc2ccc(OC)cc2)NC(=O)[C@H](CC2CCC2)NC(=O)[C@H](CCCCCN)NC(=O)[C@H](CCCNC(=N)N)NC(=O)[C@H](Cc2ccccc2)NC(=O)CSC[C@@](C)(C(N)=O)NC(=O)[C@H](Cc2ccccc2)N(C)C1=O [compound 348, cyclo(F-R-hK-cBuA-TyrOMe-Ahp-NMeF-aMeCl-ClAc)] ({CH2CO}-FR[hLys][Cba]Y(Me)[Ahp(2)][NMeF][αMeC]-NH2; thioether N-8)",45.8
